From patent publication US8946294B2, “Crystalline diacylhydrazine and the use thereof” (Intrexon Corporation, priority 2011, dated 2015)

How the values were obtained:
[1] = Solvent-based stability tests in water/methanol; format: physicochemical; details: for Relative stability of polymorphic forms: all three temperatures (25, 45, 55° C.); for Form: 6:4 MeOH:water, at least three days
Description: A mixture of Compound 1 Forms II, III, IV, and V was slurried in various compositions of methanol/water, or in water, for at least three days at different temperatures.

[2] = Solid state stability at 60-65° C.; format: physicochemical; details: closed cap vial
Description: Compound 1 Form II, Compound 1 Form III, and compound 1 Form IV were stored at 60-65° C. in a closed cap vial for various lengths of time. Compound 1 Forms II and III remained unchanged under these conditions. Compound 1 Form IV is converted to a mixture of Forms II and III after 10 days at 60-65C.

[3] = target: C. fumiferana EcR (CfEcR-DEF) (Choristoneura fumiferana, UniProt O77240); assay: Cellular gene-switch assay, WT-Cf EcR, luciferase reporter; format: cell-based; details: NIH3T3 cells
Description: (§1) Cellular gene-switch assays were performed by transfecting the following constructs in mouse embryonic fibroblast cells (NIH3T3). The wild-type D-, E-, and F-domains from a) C. fumiferana EcR (CfEcR-DEF), and b) C. fumiferana EcR with a E274V/V390I/Y410E mutation (VY-CfEcR-DEF), were fused to a GAL4-DBD and placed under the control of the CMV promoter in a pBIND vector (Promega Corporation, Madison, Wis., USA). A chimeric RXR from Homo sapiens RXRb and Locusta migratoria RXR fused to VP16-AD and under the control of an SV40e promoter has previously described. (See, Kothapalli et al., Dev. Genet. 17:319-330 (1995); Palli, et al., FEBS J. 272:5979-5990 (2005); and U.S. Pat. No. 7,935,510 B2). The inducible luciferase reporter plasmid, pFRLuc, (Stratagene Cloning Systems, La Jolla, Calif., USA) contains five copies of the GAL4 response element and a synthetic minimal promoter.
(§2) Under standard assay conditions, Compound 1 was tested at 8 doses from 0.01-33 μM and the final DMSO concentration was 0.33% in both control and treatment wells. When necessary, Compound 1 was tested at lower concentrations. After a 48-hour post-treatment and transfection incubation, the cells were assayed for luciferase activity using the Bright-GloTM Luciferase Assay System (Promega Corporation, Madison, Wis., USA) following the manufacturer's instructions. […]

[4] = target: C. fumiferana EcR with a E274V/V390I/Y410E mutation (VY-CfEcR-DEF) (Choristoneura fumiferana, UniProt O77240); assay: Cellular gene-switch assay, VY-Cf EcR, luciferase reporter; format: cell-based; details: NIH3T3 cells
Description: as §1, §2

[5] = Dynamic vapor sorption (DVS) hygroscopicity; format: physicochemical; details: for water content gained: from 0% relative humidity to 85% r.h.
Description: Projekt Messtechnik SPS11-100n multi-sample water vapor sorption analyzer or Surface Measurement Systems Ltd. DVS-1 water vapour sorption analyzer. The sample was allowed to equilibrate at 50% r.h. before starting a pre-defined humidity program.
Program: 50% r.h.→0% r.h.→95% r.h.→50% r.h., Δr.h.=5%/h
Hygroscopicity was classified as follows: • deliquescent sufficient water is absorbed to form a liquid • very hygroscopic increase of the mass is ≧15% • hygroscopic increase of the mass is less than 15% and greater than or equal to 2% • slightly hygroscopic increase of the mass is less than 2% and greater than or equal to 0.2% • not hygroscopic increase of the mass is less than 0.2% Thermogravimetry Coupled to Fourier-Transform Infrared Spectroscopy (TG-FTIR): […]

[6] = Storage under CO2 atmosphere and 75-76% relative humidity; format: physicochemical; details: open container, 1 month; for hydrate (Form IV) or CO2 adduct formation: 1 bar CO2, 75-76% relative humidity; for Form after storage: 1 bar CO2, over saturated NaCl solution (75-76% relative humidity)
[7] = Mechanical stability (IR press and grinding, PXRD); format: physicochemical; details: pressed with 10 metric tons for 30 min; vigorously ground
Description: (§3) Two types of experiments elucidated the mechanical stability of Compound 1 Form II. First, about 200 mg of Form II was pressed in an IR press with a force of 10 metric tons (13 mm diameter of pellet) for 30 min. The resulting pellets were analyzed by PXRD. Second, about 150 mg of Form II was vigorously ground and analyzed by PXRD.
as §3, with “1 Form III. First, about” for “1 Form II. First, about”, “of Form III was vigorously” for “of Form II was vigorously”

[8] = Suspension equilibration of Form I-A in non-solvate forming solvents; format: physicochemical; details: at 5° C. and room temperature
Description: 109 mg of Compound 1 Form I-A was suspended in 2.0 mL of cyclohexane and sonicated. After stirring for 14 days at room temperature, the solid was collected by filtration and dried under vacuum for 30 minutes to give Form III.
105 mg of Compound 1 Form I-A was suspended in 0.7 mL of 3:2 (v/v) n-heptane/toluene and sonicated. After stirring for 16 days at 5° C., the solid was collected by filtration and dried under vacuum for 30 minutes to give Form III.
102 mg of Compound 1 Form I-A was suspended in 0.7 mL of 10:1 (v/v) n-heptane/toluene and sonicated. After stirring for 16 days at 5° C., the solid was collected by filtration and dried under vacuum for 30 minutes to give Form III.
115 mg of Compound 1 Form I-A was suspended in 0.7 mL of 1:10 (v/v) n-heptane/toluene and sonicated. After stirring for 16 days at 5° C., the solid was collected by filtration and dried under vacuum for 30 minutes to give Form III.

[9] = Solvent-based stability tests in n-heptane/toluene; format: physicochemical; details: 3:2 (v/v) n-heptane:toluene, 6 days
Description: The thermodynamic stability of Form II and Form III as a function of temperature was investigated by suspension equilibration experiments.
54.6 mg of Compound 1 Form III and 61.2 mg of Compound 1 Form II were suspended in […] of 3:2 (v/v) n-heptane:toluene and sonicated. […] In this experiment the starting material likely took up ambient humidity to give Form IV.
18.5 mg of Compound 1 Form III and 28.0 mg of Compound 1 Form II were suspended in 0.4 mL of 3:2 (v/v) n-heptane:toluene and sonicated. After stirring at 60° C. for 6 days the solid was collected by filtration to give Form II.
35.4 mg of Compound 1 Form III and 46.1 mg of Compound 1 Form II were suspended in 0.4 mL of 3:2 (v/v) n-heptane:toluene and sonicated.
40.5 mg of Compound 1 Form III and 45.7 mg of Compound 1 Form II were suspended in 0.4 mL of 3:2 (v/v) n-heptane:toluene and sonicated. After stirring at 55° C. for 6 days the solid was collected by filtration to give Form II.
The solvent-based experiments are in principle thermodynamic stability tests between Compound 1 Forms II and III because mixtures of both forms were suspended. Below 45° C. […] Above 55° C. […] At 50° C. a mixture of both Form II and Form III was obtained in 3:2 (v/v) n-heptane:toluene. This is not unexpected. Close to the transition temperature, the thermodynamic driving force would be expected to be very small leading to slow transition rates. Possibly the kinetics of transformation were too slow for the transformation to occur on the timescale of the experiment. According to these suspension equilibration experiments, Form II and Form III are enantiotropic polymorphs. The thermodynamic transition temperature between Form II and Form III is between 45° C. and 55° C.

[10] = Solvent-based stability tests in n-heptane/ethanol; format: physicochemical; details: 95:5 heptane:ethanol
Description: Compound 1 Form II, Compound I Form III, or a mixture of Compound 1 Forms II and III were slurried in 95:5 heptane:ethanol (anhydrous). After one day at various temperatures, a portion of the slurry was filtered and analyzed by XRPD. A solution mediated transition occurs at 45-47° C. in 95:5 heptane:ethanol. Below 45° C.

[11] = Reinvestigation of Form IX sample by PXRD and FT-Raman; format: physicochemical; details: PXRD and FT-Raman spectroscopy
Description: 198 mg of Compound 1 Form I-A was dissolved in 0.2 mL acetone and 2.0 mL of cyclohexane. The solution was stirred at 5° C. for 4 hours than evaporated at 5° C. for 2 hours to obtain a precipitate. The precipitate was collected by filtration and dried under vacuum for 1 hour to give Form IX (FIGS. 29 and 30). […] The sample was likely incompletely dried but might also correspond to a cyclohexane solvate.

[12] = 48-hour incubation, luciferase activity
[13] = maximum fold induction relative to a positive control

With `CCC[C@@H](N(NC(=O)c1cccc(OC)c1CC)C(=O)c1cc(C)cc(C)c1)C(C)(C)C` [Compound 1 Form IV, (R)-3,5-dimethyl-benzoic acid N-(1-tert-butyl-butyl)-N′-(2-ethyl-3-methoxy-benzoyl)-hydrazide] the “Relative stability of polymorphic forms” value ([1]; methanol content of less than 60% volume) was “most stable polymorphic form”, the Form after storage ([2]; 3 days) was “II, III, and IV” and the Form after storage ([2]; 10 days) was “II and III”. For the same molecule, the Form after storage ([2]; 18 days) was “II and III”.
In the case of `CCC[C@@H](N(NC(=O)c1cccc(OC)c1CC)C(=O)c1cc(C)cc(C)c1)C(C)(C)C` [Compound 1, (R)-3,5-dimethyl-benzoic acid N-(1-tert-butyl-butyl)-N′-(2-ethyl-3-methoxy-benzoyl)-hydrazide], the EC50 [3, 12] is reported as 1.8 nM, the “Rel Max FI” value [3, 13] is reported as 0.99 and the EC50 [4, 12] is reported as 0.133 nM. For the same molecule, the “Rel Max FI” value [4, 13] was 0.88.
In the case of `CCC[C@@H](N(NC(=O)c1cccc(OC)c1CC)C(=O)c1cc(C)cc(C)c1)C(C)(C)C` [Compound 1 Form III, (R)-3,5-dimethyl-benzoic acid N-(1-tert-butyl-butyl)-N′-(2-ethyl-3-methoxy-benzoyl)-hydrazide], the “Hygroscopicity (DVS)” value [5] is reported as “non- to slightly-hygroscopic”, the water content gained [5] is reported as 0.1 wt.-% and the “hydrate (Form IV) or CO2 adduct formation” value [6] is reported as “no indication of hydrate (Form IV) or CO2 adduct formation”. For the same molecule, the Form after storage [6] was “unchanged Form III”, the “Change in crystalline form after mechanical treatment (PXRD)” value [7] was “no change in crystalline form” and the “Relative stability of forms” value [8] was “more stable than Form II”.
With `CCC[C@@H](N(NC(=O)c1cccc(OC)c1CC)C(=O)c1cc(C)cc(C)c1)C(C)(C)C` [Compound 1 Forms II and III, (R)-3,5-dimethyl-benzoic acid N-(1-tert-butyl-butyl)-N′-(2-ethyl-3-methoxy-benzoyl)-hydrazide] the Form obtained ([9]; 45° C.) was “mixture of Form III and Form IV”, the Form obtained ([9]; 50° C.) was “mixture of Form II and Form III” and the Form obtained ([9]; 55° C.) was “Form II”. The Form obtained ([9]; 60° C.) was “Form II” and the “solution mediated transition temperature” value [10] was 45-47 °C.
For `CCC[C@@H](N(NC(=O)c1cccc(OC)c1CC)C(=O)c1cc(C)cc(C)c1)C(C)(C)C` [Compound 1 Form IX, (R)-3,5-dimethyl-benzoic acid N-(1-tert-butyl-butyl)-N′-(2-ethyl-3-methoxy-benzoyl)-hydrazide], the “Form on reinvestigation of the sample” value [11] was “spontaneously transformed into Form II”.
In the case of `CCC[C@@H](N(NC(=O)c1cccc(OC)c1CC)C(=O)c1cc(C)cc(C)c1)C(C)(C)C` [Compound 1 Form II, (R)-3,5-dimethyl-benzoic acid N-(1-tert-butyl-butyl)-N′-(2-ethyl-3-methoxy-benzoyl)-hydrazide], the “Hygroscopicity (DVS)” value [5] is reported as “non- to slightly-hygroscopic”, the water content gained [5] is reported as 0.1 wt.-% and the “hydrate (Form IV) or CO2 adduct formation” value [6] is reported as “no indication of hydrate (Form IV) or CO2 adduct formation”. The Form after storage [6] was “unchanged Form II” and the “Change in crystalline form after mechanical treatment (PXRD)” value [7] was “no change in crystalline form”.
In the case of `CCC[C@@H](N(NC(=O)c1cccc(OC)c1CC)C(=O)c1cc(C)cc(C)c1)C(C)(C)C` [Compound 1 Forms II, III, IV, and V, (R)-3,5-dimethyl-benzoic acid N-(1-tert-butyl-butyl)-N′-(2-ethyl-3-methoxy-benzoyl)-hydrazide], the Form ([1]; 45° C.) is reported as “IV and V” and the Form ([1]; 55° C.) is reported as “IV and V”.
In the case of `CCC[C@@H](N(NC(=O)c1cccc(OC)c1CC)C(=O)c1cc(C)cc(C)c1)C(C)(C)C` [Compound 1 Form V, (R)-3,5-dimethyl-benzoic acid N-(1-tert-butyl-butyl)-N′-(2-ethyl-3-methoxy-benzoyl)-hydrazide], the “Relative stability of polymorphic forms” value ([1]; methanol content of more than 60% volume) is reported as “most stable polymorphic form”.
